Among the data in patent publication US9067871B2, “Aminotetraline derivatives, pharmaceutical compositions containing them, and their use in therapy” (ABBVIE DEUTSCHLAND GMBH & CO KG, priority 2009, dated 2015) are Ki values, retold here.

The structures appear in SMILES notation. Where a name gives a salt, the structure may show the parent alone.

Sequence of human GlyT1c transporter (P48067 whole entry): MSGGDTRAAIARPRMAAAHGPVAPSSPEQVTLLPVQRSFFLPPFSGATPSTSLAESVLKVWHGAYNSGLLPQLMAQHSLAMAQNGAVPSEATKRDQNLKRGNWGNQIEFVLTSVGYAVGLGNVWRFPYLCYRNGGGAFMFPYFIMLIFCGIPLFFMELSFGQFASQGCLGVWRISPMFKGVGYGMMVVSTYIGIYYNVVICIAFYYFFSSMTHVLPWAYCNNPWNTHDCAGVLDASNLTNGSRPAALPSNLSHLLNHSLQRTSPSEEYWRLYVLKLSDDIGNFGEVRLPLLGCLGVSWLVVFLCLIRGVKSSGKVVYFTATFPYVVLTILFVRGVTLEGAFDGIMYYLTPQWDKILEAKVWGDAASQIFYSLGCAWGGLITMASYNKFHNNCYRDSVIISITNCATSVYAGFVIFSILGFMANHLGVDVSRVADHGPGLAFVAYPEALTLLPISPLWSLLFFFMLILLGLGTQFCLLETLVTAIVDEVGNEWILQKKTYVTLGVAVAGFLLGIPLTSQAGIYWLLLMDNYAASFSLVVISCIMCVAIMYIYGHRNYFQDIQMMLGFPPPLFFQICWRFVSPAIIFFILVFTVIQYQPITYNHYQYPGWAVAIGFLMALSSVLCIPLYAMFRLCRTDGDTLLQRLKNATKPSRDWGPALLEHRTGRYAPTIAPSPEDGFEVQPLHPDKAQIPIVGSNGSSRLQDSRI

The test concerns the target human GlyT1c transporter (Homo sapiens (Human), UniProt P48067). Kind of test: Radioligand binding assay using recombinant CHO cell membranes expressing human GlyT1. The settings on record: human GlyT1c-expressing CHO cell membranes; read-out: radioligand binding Kiapp. From the text: 2. Radioligand binding assays using recombinant CHO cell membranes expressing human GlyT1: […]
In the case of `CNC1CCc2ccc(OCCNS(=O)(=O)CC3CC3)cc2C1Cc1cccc(Cl)c1` (stereo not drawn) [Example 300, N-{2-[8-(3-Chloro-benzyl)-7-methylamino-5,6,7,8-tetrahydro-naphthalen-2-yloxy]-ethyl}-C-cyclopropyl-methanesulfonamide hydrochloride], the Ki is ≤ 10 nM.
Consider `Cn1cc(S(=O)(=O)NCCOc2ccc3c(c2)C(Cc2ccccc2Cl)C(N)CC3)cn1` (stereo not drawn) [Example 301, 1-Methyl-1H-pyrazole-4-sulfonic acid {2-[7-amino-8-(2-chloro-benzyl)-5,6,7,8-tetrahydronaphthalen-2-yloxy]-ethyl}-amide hydrochloride], for which the Ki was ≤ 10 nM.
Turning to `CNC1CCc2ccc(OCCNS(=O)(=O)c3cnn(C)c3)cc2C1Cc1ccccc1Cl` (stereo not drawn) [Example 302, 1-Methyl-1H-pyrazole-4-sulfonic acid {2-[8-(2-chloro-benzyl)-7-methylamino-5,6,7,8-tetrahydro-naphthalen-2-yloxy]-ethyl}-amide hydrochloride], the Ki is ≤ 100 nM.
`CNC1CCc2ccc(OCCNS(=O)(=O)c3cn(C)cn3)cc2C1Cc1ccccc1Cl` (stereo not drawn) [Example 303, 1-Methyl-1H-imidazole-4-sulfonic acid {2-[8-(2-chloro-benzyl)-7-methylamino-5,6,7,8-tetrahydro-naphthalen-2-yloxy]-ethyl}-amide hydrochloride]: the Ki is ≤ 100 nM.
Consider `CCCS(=O)(=O)NCCc1ccc2c(c1)C(Cc1cccc(Cl)c1)C(N)CC2` (stereo not drawn) [Example 304, Propane-1-sulfonic acid {2-[7-amino-8-(3-chloro-benzyl)-5,6,7,8-tetrahydro-naphthalen-2-yl]-ethyl}-amide hydrochloride], for which the Ki was ≤ 1000 nM.
As to `Cn1cnc(S(=O)(=O)NCCOc2ccc3c(c2)C(Cc2ccccc2Cl)C(N)CC3)c1` (stereo not drawn) [Example 305, 1-Methyl-1H-imidazole-4-sulfonic acid {2-[7-amino-8-(2-chloro-benzyl)-5,6,7,8-tetrahydronaphthalen-2-yloxy]-ethyl}-amide hydrochloride], the Ki was ≤ 100 nM.
On to `CC(=O)NC1CCc2ccc(OCCNS(=O)(=O)CC3CC3)cc2C1Cc1cccc(Cl)c1` (stereo not drawn) [Example 306, N-[1-(3-Chloro-benzyl)-7-(2-cyclopropylmethanesulfonylamino-ethoxy)-1,2,3,4-tetrahydronaphthalen-2-yl]-acetamide], for which the Ki is ≤ 100 nM.
For the compound `CCNC1CCc2ccc(OCCNS(=O)(=O)CC3CC3)cc2C1Cc1cccc(Cl)c1` (stereo not drawn) [Example 307, N-{2-[8-(3-Chloro-benzyl)-7-ethylamino-5,6,7,8-tetrahydro-naphthalen-2-yloxy]-ethyl}-C-cyclopropyl-methanesulfonamide hydrochloride], the Ki was ≤ 10 nM.
Turning to `CCCS(=O)(=O)NCCCc1ccc2c(c1)C(Cc1cccc(Cl)c1)C(NC)CC2` (stereo not drawn) [Example 308, Propane-1-sulfonic acid {3-[8-(3-chloro-benzyl)-7-methylamino-5,6,7,8-tetrahydronaphthalen-2-yl]-propyl}-amide hydrochloride], the Ki is ≤ 10 nM.
Take `CCCS(=O)(=O)NCCc1ccc2c(c1)C(Cc1cccc(Cl)c1)C(NC)CC2` (stereo not drawn) [Example 309, Propane-1-sulfonic acid {2-[8-(3-chloro-benzyl)-7-methylamino-5,6,7,8-tetrahydronaphthalen-2-yl]-ethyl}-amide]: the Ki is ≤ 100 nM.
For `NC1CCc2ccc(CCNS(=O)(=O)CC3CC3)cc2C1Cc1cccc(Cl)c1` (stereo not drawn) [Example 310, N-{2-[7-Amino-8-(3-chloro-benzyl)-5,6,7,8-tetrahydro-naphthalen-2-yl]-ethyl}-C-cyclopropyl-methanesulfonamide hydrochloride], the Ki is ≤ 1000 nM.
The figure for `CCCS(=O)(=O)NCCOc1ccc2c(c1)C(Cc1ccccc1F)C(NC)CC2` (stereo not drawn) [Example 311, Propane-1-sulfonic acid {2-[8-(2-fluoro-benzyl)-7-methylamino-5,6,7,8-tetrahydronaphthalen-2-yloxy]-ethyl}-amide hydrochloride] is ≤ 100 nM.
The figure for `CNC1CCc2ccc(OCCNS(=O)(=O)CC3CC3)cc2C1Cc1ccccc1F` (stereo not drawn) [Example 312, C-Cyclopropyl-N-{2-[8-(2-fluoro-benzyl)-7-methylamino-5,6,7,8-tetrahydro-naphthalen-2-yloxy]-ethyl}-methanesulfonamide hydrochloride] is ≤ 100 nM; for `CNC1CCc2ccc(CCNS(=O)(=O)c3cn(C)cn3)cc2C1Cc1cccc(Cl)c1` (stereo not drawn) [Example 313, 1-Methyl-1H-imidazole-4-sulfonic acid {2-[8-(3-chloro-benzyl)-7-methylamino-5,6,7,8-tetrahydro-naphthalen-2-yl]-ethyl}-amide] it is ≤ 100 nM; for `CCCS(=O)(=O)NCCOc1ccc2c(c1)C(CC1CCCCC1)C(NC)CC2` (stereo not drawn) [Example 314, Propane-1-sulfonic acid [2-(8-cyclohexylmethyl-7-methylamino-5,6,7,8-tetrahydronaphthalen-2-yloxy)-ethyl]-amide trifluoroacetate] it is ≤ 1000 nM.
The figure for `Cn1cnc(S(=O)(=O)NCCOc2ccc3c(c2)C(Cc2ccccc2Cl)C(N2CCCC2)CC3)c1` (stereo not drawn) [Example 315, 1-Methyl-1H-imidazole-4-sulfonic acid {2-[8-(2-chloro-benzyl)-7-pyrrolidin-1-yl-5,6,7,8-tetrahydro-naphthalen-2-yloxy]-ethyl}-amide hydrochloride] is ≤ 1000 nM.
With `Cc1nc(S(=O)(=O)NCCOc2ccc3c(c2)C(Cc2cccc(Cl)c2)C(N)CC3)cn1C` (stereo not drawn) [Example 316, 1,2-Dimethyl-1H-imidazole-4-sulfonic acid {2-[7-amino-8-(3-chloro-benzyl)-5,6,7,8-tetrahydro-naphthalen-2-yloxy]-ethyl}-amide hydrochloride], the Ki is ≤ 1000 nM.
Take `O=S(=O)(CC1CC1)NCCOc1ccc2c(c1)C(Cc1cccc(Cl)c1)C(N1CCCC1)CC2` (stereo not drawn) [Example 317, N-{2-[8-(3-Chloro-benzyl)-7-pyrrolidin-1-yl-5,6,7,8-tetrahydro-naphthalen-2-yloxy]-ethyl}-C-cyclopropyl-methanesulfonamide hydrochloride]: the Ki is ≤ 100 nM.
For the compound `Cn1cc(S(=O)(=O)NCCOc2ccc3c(c2)C(Cc2cccc(Cl)c2)C(N2CCCC2)CC3)cn1` (stereo not drawn) [Example 318, 1-Methyl-1H-pyrazole-4-sulfonic acid {2-[8-(3-chloro-benzyl)-7-pyrrolidin-1-yl-5,6,7,8-tetrahydro-naphthalen-2-yloxy]-ethyl}-amide hydrochloride], the Ki was ≤ 10 nM.
The figure for `Cn1cnc(S(=O)(=O)NCCOc2ccc3c(c2)C(Cc2cccc(Cl)c2)C(N2CCCC2)CC3)c1` (stereo not drawn) [Example 319, 1-Methyl-1H-imidazole-4-sulfonic acid {2-[8-(3-chloro-benzyl)-7-pyrrolidin-1-yl-5,6,7,8-tetrahydro-naphthalen-2-yloxy]-ethyl}-amide hydrochloride] is ≤ 100 nM; for `O=S(=O)(CC1CC1)NCCOc1ccc2c(c1)C(Cc1cccc(Cl)c1)C(N1CCC1)CC2` (stereo not drawn) [Example 320, N-{2-[7-Azetidin-1-yl-8-(3-chloro-benzyl)-5,6,7,8-tetrahydro-naphthalen-2-yloxy]-ethyl}-C-cyclopropyl-methanesulfonamide] it is ≤ 100 nM.
